These results are taken from ChEMBL document CHEMBL3763055, “Evaluation of synthetic coumarins for antiausterity cytotoxicity against pancreatic cancers” (Bioorg Med Chem Lett, 2016).

One data set relates to PANC-1. The experiment in a line: Induction of apoptosis in human PANC1 cells under nutrient deprived condition at 50 uM after 24 hrs by ethidium bromide/acridine orange staining based fluorescence microscopy. Type of data set: functional, cell-based.
Data set [1] is described as follows: Antiausterity activity against human PANC1 cells under nutrient deprived condition assessed as reduction in cell viability incubated for 24 hrs by WST-8 assay. Type of data set: functional, PANC-1. On the technique in general: Formazan colour is commonly taken as a measure of viable cells.
Data set [2] is described as follows: Cytotoxicity against human PANC1 cells in DMEM assessed as reduction in cell viability at 100 uM incubated for 24 hrs by WST-8 assay. It counts as cell-based. Conditions: panc-1, 24 h.
Data set [3] in a line: Antiausterity activity against human MIAPaCa2 cells under nutrient deprived condition assessed as reduction in cell viability incubated for 24 hrs by WST-8 assay. It counts as functional, MIA PaCa-2.
The nature of data set [4]: Antiausterity activity against human Capan1 cells under nutrient deprived condition assessed as reduction in cell viability incubated for 24 hrs by WST-8 assay. It counts as functional, CAPAN-1.

Calls of active or inactive are those of the source. The calls are words filed in the database; no cut-off is given here. Some results are limits rather than exact numbers.

As for `O=c1ccc2ccc(OCc3cn(Cc4cccc(C(F)(F)F)c4)nn3)cc2o1`, in the data set on PANC-1, the outcome was Active. Also, the PC50 in data set [1] came out at 29 µM; in data set [3], 8.5 µM; in data set [4], 18 µM. Besides, the Activity entry in data set [2] is listed as “Non-toxic”.
Take `O=c1ccc2ccc(OCc3cn(Cc4ccc(C(F)(F)F)cc4)nn3)cc2o1`: the PC50 in data set [1] was >100 µM; in data set [3] it was 9.6 µM; in data set [4], >100 µM. In addition, in data set [2], the Activity entry is recorded as “Non-toxic”.
Consider `COc1ccc(Cn2cc(COc3ccc4ccc(=O)oc4c3)nn2)cc1`, for which the PC50 in data set [1] was >100 µM. The Activity entry in data set [2] is given as “Non-toxic”.
Turning to `CCCCCCCCCCCCOc1ccc2c(CC)cc(=O)oc2c1`, the PC50 in data set [1] worked out at 51 µM. Moreover, the Activity entry in data set [2] is “Non-toxic”.
Regarding `CCCCCCCCOc1ccc2c(C)cc(=O)oc2c1`, the PC50 in data set [1] stood at 48 µM. For the same compound, the Activity result in data set [2] is recorded as “Non-toxic”.
For `CCCCCCCCn1cc(COc2ccc3ccc(=O)oc3c2)nn1`, in data set [1], the PC50 is >100 µM. In addition, the Activity result in data set [2] is on record as “Non-toxic”.
On to `CC(C)=CCC/C(C)=C/COc1cc2ccc(=O)oc2cc1O`, for which the PC50 in data set [1] worked out at 7.2 µM.
In the case of `CCCCCCCCCCCCOc1ccc2c(C)cc(=O)oc2c1`, the PC50 in data set [1] is >100 µM. Besides, the Activity result in data set [2] is “Non-toxic”.
Regarding `CC(C)(CC(=O)/C=C/c1cccc(C(F)(F)F)c1)C1Cc2c(ccc3ccc(=O)oc23)O1` (configuration not stated), in data set [1], the PC50 came to 0.079 µM.
With `CCCCCCCCCCCCCCOc1ccc2c(C)cc(=O)oc2c1`, the PC50 in data set [1] was >100 µM. In addition, in data set [2], the Activity entry is “Non-toxic”.
Regarding `Cc1cc(=O)oc2cc(OCC3CC3)ccc12`, in data set [1], the PC50 is >100 µM. The Activity result in data set [2] is “Non-toxic”.
As for `CCCCCCCCOc1ccc2c(C)cc(=O)oc2c1C`, in data set [1], the PC50 is >100 µM. The Activity entry in data set [2] is “Non-toxic”.
The corresponding values for `CCCCCCCCCCCCCCCCOc1ccc2c(C(F)(F)F)cc(=O)oc2c1C` are >100 µM and “Non-toxic”.
The corresponding values for `O=c1ccc2ccc(OCc3cn(Cc4ccccc4)nn3)cc2o1` are >100 µM and “Non-toxic”.
The corresponding values for `CCCCCCCCCCCCOc1ccc2c(C(F)(F)F)cc(=O)oc2c1C` are >100 µM and “Non-toxic”.
`CC(C)(CC(=O)/C=C/c1ccc(C(F)(F)F)cc1)C1Cc2c(ccc3ccc(=O)oc23)O1` (configuration not stated): the PC50 in data set [1] was 0.023 µM.
As for `CC(C)c1ccc(Cn2cc(COc3ccc4ccc(=O)oc4c3)nn2)cc1`, the PC50 in data set [1] is >100 µM. The Activity entry in data set [2] was “Non-toxic”.
The corresponding values for `CCCCCCCCCCCCCCCCOc1ccc2c(C(F)(F)F)cc(=O)oc2c1` are >100 µM and “Non-toxic”.
With `CCCCCCCCOc1ccc2c(C(F)(F)F)cc(=O)oc2c1`, the PC50 in data set [1] is 63 µM. Further, the Activity entry in data set [2] is “Non-toxic”.
The corresponding values for `CCCCCCCCOc1ccc2c(CC)cc(=O)oc2c1` are 29 µM and “Non-toxic”.
